Data taken from patent US10023592B2, “Bromodomain inhibitors” (Celgene Quanticel Research, Inc., priority 2013, dated 2018).

How the values were obtained:
[1] = tested on: Raji, human Burkitts lymphoma cells; assay: Cell-MTS proliferation assay, Raji; assay type: cell-based; conditions: 168 hr
How it was run: (§1)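 Seed: Raji 15,000, HL-60 5,000, NCI-H460 3,000 cells/96-well. +24 hr: 11-pt compound dilution, 100 μM–2.0 nM final. 7 d culture, MTS reagent, read OD490; IC50 vs DMSO, background subtracted.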

BRD4(BD1) = BRD4(BD1) (Homo sapiens (Human), UniProt O60885); assay: In vitro enzyme inhibition assay (BRD4 AlphaScreen); assay type: binding
How it was run: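 His-tagged BRD4 tested by AlphaScreen for binding of biotinylated H4K5/8/12/16-tetraacetyl peptide. After 20 min at room temperature, streptavidin donor and nickel chelate acceptor beads added (5 μg/mL final each). IC50 determined.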

[2] = tested on: NCI-H460, human non-small cell lung cancer cells; assay: Cell-MTS proliferation assay, NCI-H460; assay type: cell-based; conditions: 168 hr
How it was run: as §1

[3] = tested on: HL-60, human proleukemia cells; assay: Cell-MTS proliferation assay, HL-60; assay type: cell-based; conditions: 168 hr
How it was run: as §1

[4] = Homo sapiens, Raji, Cell-MTS proliferation
[5] = in vitro enzyme inhibition assay
[6] = Homo sapiens, NCI-H460, Cell-MTS proliferation
[7] = Homo sapiens, HL-60, Cell-MTS proliferation
[8] = Homo sapiens, Cell-MTS proliferation, Raji cells
[9] = Homo sapiens, Cell-MTS proliferation, NCI-H460 cells
[10] = Homo sapiens, Cell-MTS proliferation, HL-60 cells
[11] = Homo sapiens, Raji, Cell-MTS, class symbols A/B/C
[12] = Homo sapiens, NCI-H460, Cell-MTS, class symbols A/B/C
[13] = Homo sapiens, HL-60, Cell-MTS, class symbols A/B/C

SMILES | IC50 [1, 4] | IC50 (BRD4(BD1); [5]) | IC50 [2, 6] | IC50 [3, 7] | also measured
CCc1ccc(S(C)(=O)=O)cc1-c1ccc(=O)n(C)c1 [Example 312, 5-(2-ethyl-5-methylsulfonylphenyl)-1-methylpyridin-2-one] | > 5000 nM | 500 to 5000 nM | > 5000 nM | > 5000 nM | –
Cn1cc(-c2ccc3c(=O)n(C)cc(-c4cc(S(C)(=O)=O)ccc4OCC4CC4)c3c2)cn1 [Example 46, 4-[2-(cyclopropylmethoxy)-5-methylsulfonylphenyl]-2-methyl-6-(1-methylpyrazol-4-yl)isoquinolin-1-one] | – | – | – | – | IC50 [1, 11]: < 500 nM; IC50 (BRD4(BD1); class symbols A/B/C): < 500 nM; IC50 [2, 12]: > 5000 nM; IC50 [3, 13]: < 500 nM
COc1ccc(-c2cn(C)c(=O)c3cnccc23)cc1S(=O)(=O)NCc1ccccc1 [Example 54, N-benzyl-2-methoxy-5-(2-methyl-1-oxo-2,7-naphthyridin-4-yl) benzenesulfonamide] | – | – | – | – | IC50 ([1]; Cell-MTS, class symbols A/B/C): > 5000 nM; IC50 (BRD4(BD1); class symbols A/B/C): > 5000 nM; IC50 ([2]; Cell-MTS, class symbols A/B/C): > 5000 nM; IC50 ([3]; Cell-MTS, class symbols A/B/C): 500 to 5000 nM
Cn1cc(-c2cc(S(C)(=O)=O)ccc2OCC2CC2)c2ccc(F)cc2c1=O [Example 91, 4-[2-(cyclopropylmethoxy)-5-methylsulfonylphenyl]-7-fluoro-2-methyl-isoquinolin-1-one] | – | – | – | – | IC50 [1, 11]: < 500 nM; IC50 (BRD4(BD1); class symbols A/B/C): < 500 nM; IC50 [2, 12]: > 5000 nM; IC50 [3, 13]: < 500 nM
CCS(=O)(=O)Nc1cc(-c2cn(C)c(=O)c3ccc(-c4cnn(C)c4)cc23)c(OC)cc1F [Example 86, N-[2-fluoro-4-methoxy-5-[2-methyl-6-(1-methylpyrazol-4-yl)-1-oxoisoquinolin-4-yl]phenyl]ethanesulfonamide] | – | – | – | – | IC50 [1, 11]: < 500 nM; IC50 (BRD4(BD1); class symbols A/B/C): < 500 nM; IC50 [2, 12]: 500 to 5000 nM; IC50 [3, 13]: < 500 nM
Cn1cc(-c2cc(S(C)(=O)=O)ccc2OCC2CC2)c2cc(C(N)=O)sc2c1=O [Example 267, 4-[2-(cyclopropylmethoxy)-5-methylsulfonylphenyl]-6-methyl-7-oxothieno[2,3-c]pyridine-2-carboxamide] | 500 to 5000 nM | < 500 nM | > 5000 nM | < 500 nM | –
CCS(=O)(=O)Nc1cnc(OCC2CC2)c(-c2cn(C)c(=O)c3ccccc23)c1 [Example 320, N-[6-(cyclopropylmethoxy)-5-(2-methyl-1-oxoisoquinolin-4-yl)pyridin-3-yl]ethanesulfonamide] | < 500 nM | < 500 nM | > 5000 nM | < 500 nM | –
Cn1cc(-c2nc(NS(C)(=O)=O)ncc2OCC2CC2)c2ccc(F)cc2c1=O [Example 158, N-[5-(cyclopropylmethoxy)-4-(7-fluoro-2-methyl-1-oxoisoquinolin-4-yl)pyrimidin-2-yl]methanesulfonamide] | < 500 nM | < 500 nM | > 5000 nM | < 500 nM | –
Cc1cc(-c2cc(S(C)(=O)=O)ccc2OC2CCCC2)cn(C)c1=O [Example 419, 5-(2-cyclopentyloxy-5-methylsulfonylphenyl)-1,3-dimethylpyridin-2-one] | – | < 500 nM | – | – | IC50 [1, 8]: 500 to 5000 nM; IC50 [2, 9]: > 5000 nM; IC50 [3, 10]: < 500 nM
CCS(=O)(=O)Nc1ccc(OC2CCOC2)c(-c2cc(C)c(=O)n(C)c2)c1 (stereo not drawn) [Example 445, N-[3-(1,5-dimethyl-6-oxopyridin-3-yl)-4-(oxolan-3-yloxy)phenyl]ethanesulfonamide] | – | < 500 nM | – | – | IC50 [1, 8]: < 500 nM; IC50 [2, 9]: > 5000 nM; IC50 [3, 10]: < 500 nM
CCS(=O)(=O)c1ccc(OCC2CC2)c(-c2cn(C)c(=O)c3ccc(-c4cnn(C)c4)cc23)c1 [Example 82, 4-[2-(cyclopropylmethoxy)-5-ethylsulfonylphenyl]-2-methyl-6-(1-methylpyrazol-4-yl)isoquinolin-1-one] | – | – | – | – | IC50 [1, 11]: < 500 nM; IC50 (BRD4(BD1); class symbols A/B/C): < 500 nM; IC50 [2, 12]: 500 to 5000 nM; IC50 [3, 13]: < 500 nM

Second part, led by results:

IC50 [1, 4] | IC50 (BRD4(BD1); [5]) | IC50 [2, 6] | IC50 [3, 7] | SMILES | also measured
< 500 nM | < 500 nM | > 5000 nM | < 500 nM | CCS(=O)(=O)Nc1ncc(OCC2CC2)c(-c2cn(C)c(=O)c3ccccc23)n1 [Example 155, N-[5-(cyclopropylmethoxy)-4-(2-methyl-1-oxoisoquinolin-4-yl)pyrimidin-2-yl]ethanesulfonamide] | –
< 500 nM | < 500 nM | > 5000 nM | < 500 nM | CCS(=O)(=O)c1ccc(OC)c(-c2cn(C)c(=O)c3ccc(-c4cn[nH]c4)cc23)c1 [Example 210, 4-(5-ethylsulfonyl-2-methoxyphenyl)-2-methyl-6-(1H-pyrazol-4-yl) isoquinolin-1-one] | –
< 500 nM | < 500 nM | > 5000 nM | < 500 nM | CCN(c1ncc(OCC2CC2)c(-c2cc(C)c(=O)n(C)c2)n1)S(C)(=O)=O [Example 162, N-[5-(cyclopropylmethoxy)-4-(1,5-dimethyl-6-oxopyridin-3-yl)pyrimidin-2-yl]-N-ethylmethanesulfonamide] | –
– | < 500 nM | – | – | Cn1cc(-c2cc(CS(C)(=O)=O)ccc2OCC(F)(F)F)cc(Cl)c1=O [Example 418, 3-chloro-1-methyl-5-[5-(methylsulfonylmethyl)-2-(2,2,2-trifluoroethoxy)phenyl]pyridin-2-one] | IC50 [1, 8]: 500 to 5000 nM; IC50 [2, 9]: > 5000 nM; IC50 [3, 10]: < 500 nM
– | < 500 nM | – | – | Cn1cc(-c2cc(CS(C)(=O)=O)ccc2Oc2ccc(F)cc2F)cc(F)c1=O [Example 437, 5-[2-(2,4-difluorophenoxy)-5-(methylsulfonylmethyl)phenyl]-3-fluoro-1-methylpyridin-2-one] | IC50 [1, 8]: < 500 nM; IC50 [2, 9]: > 5000 nM; IC50 [3, 10]: < 500 nM
500 to 5000 nM | < 500 nM | > 5000 nM | 500 to 5000 nM | C#Cc1cc(-c2cc(S(=O)(=O)CC)ccc2OCC2CC2)cn(C)c1=O [Example 284, 5-[2-(cyclopropylmethoxy)-5-ethylsulfonylphenyl]-3-ethynyl-1-methylpyridin-2-one] | –
500 to 5000 nM | < 500 nM | > 5000 nM | < 500 nM | C#Cc1cc(-c2cc(NS(=O)(=O)CC)ccc2Oc2ccc(F)cc2F)cn(C)c1=O [Example 283, N-[4-(2,4-difluorophenoxy)-3-(5-ethynyl-1-methyl-6-oxopyridin-3-yl)phenyl]ethanesulfonamide] | –
– | < 500 nM | – | – | CCS(=O)(=O)Nc1ccc(Oc2ccc(F)cc2F)c(-c2cc(N(C)C)c(=O)n(C)c2)c1 [Example 464, N-[4-(2,4-difluorophenoxy)-3-[5-(dimethylamino)-1-methyl-6-oxopyridin-3-yl]phenyl]ethanesulfonamide] | IC50 [1, 8]: < 500 nM; IC50 [2, 9]: > 5000 nM; IC50 [3, 10]: < 500 nM
< 500 nM | < 500 nM | > 5000 nM | < 500 nM | CCS(=O)(=O)Nc1ccc(Oc2ccc(F)cc2F)c(-c2cc(C3CC3)c(=O)n(C)c2)c1 [Example 140, N-[3-(5-cyclopropyl-1-methyl-6-oxopyridin-3-yl)-4-(2,4-difluorophenoxy)phenyl]ethanesulfonamide] | –
< 500 nM | < 500 nM | > 5000 nM | < 500 nM | CCS(=O)(=O)Nc1ncc(OCC2CC2)c(-c2cn(C)c(=O)c3occc23)n1 [Example 264, N-[5-(cyclopropylmethoxy)-4-(6-methyl-7-oxofuro[2,3-c]pyridin-4-yl)pyrimidin-2-yl]ethanesulfonamide] | –
– | < 500 nM | – | – | CCS(=O)(=O)c1ccc(NC2CCC(F)(F)CC2)c(-c2cc(C)c(=O)n(C)c2)c1 [Example 397, 5-[2-[(4,4-difluorocyclohexyl)amino]-5-ethylsulfonylphenyl]-1,3-dimethylpyridin-2-one] | IC50 [1, 8]: < 500 nM; IC50 [2, 9]: > 5000 nM; IC50 [3, 10]: < 500 nM
< 500 nM | < 500 nM | 500 to 5000 nM | < 500 nM | CCS(=O)(=O)Nc1cc(Oc2ccc(F)cc2F)cc(-c2cc(C)c(=O)n(C)c2)c1 [Example 342, N-[3-(2,4-difluorophenoxy)-5-(1,5-dimethyl-6-oxopyridin-3-yl)phenyl]ethanesulfonamide] | –
– | < 500 nM | – | – | Cc1cc(-c2cc(S(C)(=O)=O)ccc2OCC2CCC2)cn(C)c1=O [Example 459, 5-[2-(cyclobutylmethoxy)-5-methylsulfonylphenyl]-1,3-dimethylpyridin-2-one] | IC50 [1, 8]: < 500 nM; IC50 [2, 9]: > 5000 nM; IC50 [3, 10]: < 500 nM
< 500 nM | < 500 nM | > 5000 nM | < 500 nM | CCN(c1ncc(OCC2CC2)c(-c2cn(C)c(=O)c3ccccc23)n1)S(C)(=O)=O [Example 161, N-[5-(cyclopropylmethoxy)-4-(2-methyl-1-oxoisoquinolin-4-yl)pyrimidin-2-yl]-N-ethylmethanesulfonamide] | –
> 5000 nM | < 500 nM | > 5000 nM | 500 to 5000 nM | Cc1cc(-c2nc(CS(C)(=O)=O)ncc2OCC2CC2)cn(C)c1=O [Example 144, 5-[5-(cyclopropylmethoxy)-2-(methylsulfonylmethyl)pyrimidin-4-yl]-1,3-dimethylpyridin-2-one] | –
< 500 nM | < 500 nM | > 5000 nM | < 500 nM | CCS(=O)(=O)c1ccc(OCC2CC2)c(-c2cn(C)c(=O)c3sc(C(N)=O)cc23)c1 [Example 265, 4-[2-(cyclopropylmethoxy)-5-ethylsulfonylphenyl]-6-methyl-7-oxothieno[2,3-c]pyridine-2-carboxamide] | –
